Columns and labels:
Assay type in all cases: in vivo
[1] = tested on: rice (Oryza sativa); assay: Test B flooded paddy test, visual plant response rating; conditions: 250 g ai/ha, Flood, applied to paddy water, 2-leaf stage, evaluated after 13 to 15 days
Procedure, shortened: (§1)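 Flooded-pot treatment: water 3 cm over the soil, chemical delivered into that water, depth unchanged for the duration. Assessed by eye versus controls following 13–15 greenhouse days; plants were at 2 leaves when dosed.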

[2] = tested on: barnyardgrass (Echinochloa crus-galli); assay: as above; conditions: 250 g ai/ha, Flood, applied to paddy water, 2-leaf stage, evaluated after 13 to 15 days
Procedure, shortened: as §1

[3] = tested on: sedge, umbrella (small-flower umbrella sedge, Cyperus difformis); assay: as above; conditions: 250 g ai/ha, Flood, applied to paddy water, 2-leaf stage, evaluated after 13 to 15 days
Procedure, shortened: as §1

[4] = tested on: ducksalad (Heteranhera limosa); assay: as above; conditions: 250 g ai/ha, Flood, applied to paddy water, 2-leaf stage, evaluated after 13 to 15 days
Procedure, shortened: as §1

[5] = tested on: foxtail, giant (giant foxtail, Setaria faberii); assay: Test A preemergence, visual plant response rating; conditions: for Foxtail, Giant plant response rating: 125 g ai/ha, preemergence, 0 to 100 scale, 0 no effect, 100 complete control; for Foxtail, Giant plant response rating (0 to 100 scale): 500 g ai/ha Preemergence, approx. 10 days
Procedure, shortened: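 Greenhouse pot test in loam–sand soil mix: compound in a surfactant-containing non-phytotoxic solvent applied preemergence (directed soil spray) or postemergence (one- to two-leaf plants, 2–10 cm). Injury scored visually after ~10 days, 0–100.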

[6] = tested on: ragweed (common ragweed, Ambrosia elatior); assay: Test A preemergence, visual plant response rating; conditions: for Ragweed plant response rating: 125 g ai/ha, preemergence, 0 to 100 scale, 0 no effect, 100 complete control; for Ragweed plant response rating (0 to 100 scale): 500 g ai/ha Preemergence, approx. 10 days
Procedure, shortened: (§2)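 Compared with untreated controls, treated plants received a visual injury score on a 0–100 scale around 10 days after application. The compound, in a non-phytotoxic solvent with surfactant, was given as a preemergence soil spray or postemergence at the one- to two-leaf stage.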

[7] = tested on: Italian ryegrass (Lolium multiflorum); assay: Test A preemergence, visual plant response rating; conditions: for Ryegrass, Italian plant response rating: 125 g ai/ha, preemergence, 0 to 100 scale, 0 no effect, 100 complete control; for Ryegrass, Italian plant response rating (0 to 100 scale): 500 g ai/ha Preemergence, approx. 10 days
Procedure, shortened: as §2

[8] = tested on: barnyardgrass (Echinochloa crus-galli); assay: Test A preemergence, visual plant response rating; conditions: for Barnyardgrass plant response rating: 125 g ai/ha, preemergence, 0 to 100 scale, 0 no effect, 100 complete control; for Barnyardgrass plant response rating (0 to 100 scale): 500 g ai/ha Preemergence, approx. 10 days
Procedure, shortened: as §2

[9] = tested on: kochia (Kochia scoparia); assay: Test A preemergence, visual plant response rating; conditions: for Kochia plant response rating: 125 g ai/ha, preemergence, 0 to 100 scale, 0 no effect, 100 complete control; for Kochia plant response rating (0 to 100 scale): 500 g ai/ha Preemergence, approx. 10 days
Procedure, shortened: as §2

[10] = tested on: pigweed (Amaranthus retroflexus); assay: Test A preemergence, visual plant response rating; conditions: for Pigweed plant response rating: 125 g ai/ha, preemergence, 0 to 100 scale, 0 no effect, 100 complete control; for Pigweed plant response rating (0 to 100 scale): 500 g ai/ha Preemergence, approx. 10 days
Procedure, shortened: as §2

[11] = tested on: foxtail, giant (giant foxtail, Setaria faberii); assay: Test A postemergence, visual plant response rating; conditions: for Foxtail, Giant plant response rating (0 to 100 scale): 500 g ai/ha, postemergence, 0 is no effect, 100 is complete control; for Foxtail, Giant plant response rating: Postemergence, 125 g ai/ha, 0 to 100 scale (0 no effect, 100 complete control)
Procedure, shortened: as §2

[12] = tested on: wheat (Triticum aestivum); assay: Test A postemergence, visual plant response rating; conditions: for Wheat plant response rating (0 to 100 scale): 500 g ai/ha, postemergence, 0 is no effect, 100 is complete control; for Wheat plant response rating: Postemergence, 125 g ai/ha, 0 to 100 scale (0 no effect, 100 complete control)
Procedure, shortened: as §2

[13] = tested on: ragweed (common ragweed, Ambrosia elatior); assay: Test A postemergence, visual plant response rating; conditions: for Ragweed plant response rating (0 to 100 scale): 500 g ai/ha, postemergence, 0 is no effect, 100 is complete control; for Ragweed plant response rating: Postemergence, 125 g ai/ha, 0 to 100 scale (0 no effect, 100 complete control)
Procedure, shortened: as §2

[14] = tested on: Italian ryegrass (Lolium multiflorum); assay: Test A postemergence, visual plant response rating; conditions: for Ryegrass, Italian plant response rating (0 to 100 scale): 500 g ai/ha, postemergence, 0 is no effect, 100 is complete control; for Ryegrass, Italian plant response rating: Postemergence, 125 g ai/ha, 0 to 100 scale (0 no effect, 100 complete control)
Procedure, shortened: as §2

[15] = tested on: barnyardgrass (Echinochloa crus-galli); assay: Test A postemergence, visual plant response rating; conditions: for Barnyardgrass plant response rating (0 to 100 scale): 500 g ai/ha, postemergence, 0 is no effect, 100 is complete control; for Barnyardgrass plant response rating: Postemergence, 125 g ai/ha, 0 to 100 scale (0 no effect, 100 complete control)
Procedure, shortened: as §2

[16] = tested on: galium (catchweed bedstraw, Galium aparine); assay: Test A postemergence, visual plant response rating; conditions: for Galium plant response rating (0 to 100 scale): 500 g ai/ha, postemergence, 0 is no effect, 100 is complete control; for Galium plant response rating: Postemergence, 125 g ai/ha, 0 to 100 scale (0 no effect, 100 complete control)
Procedure, shortened: as §2

[17] = tested on: blackgrass (Alopecurus myosuroides); assay: Test A postemergence, visual plant response rating; conditions: for Blackgrass plant response rating (0 to 100 scale): 500 g ai/ha, postemergence, 0 is no effect, 100 is complete control; for Blackgrass plant response rating: Postemergence, 125 g ai/ha, 0 to 100 scale (0 no effect, 100 complete control)
Procedure, shortened: as §2

[18] = tested on: corn (Zea mays); assay: Test A postemergence, visual plant response rating; conditions: for Corn plant response rating (0 to 100 scale): 500 g ai/ha, postemergence, 0 is no effect, 100 is complete control; for Corn plant response rating: Postemergence, 125 g ai/ha, 0 to 100 scale (0 no effect, 100 complete control)
Procedure, shortened: as §2

[19] = tested on: kochia (Kochia scoparia); assay: Test A postemergence, visual plant response rating; conditions: for Kochia plant response rating (0 to 100 scale): 500 g ai/ha, postemergence, 0 is no effect, 100 is complete control; for Kochia plant response rating: Postemergence, 125 g ai/ha, 0 to 100 scale (0 no effect, 100 complete control)
Procedure, shortened: as §2

[20] = tested on: pigweed (Amaranthus retroflexus); assay: Test A postemergence, visual plant response rating; conditions: for Pigweed plant response rating (0 to 100 scale): 500 g ai/ha, postemergence, 0 is no effect, 100 is complete control; for Pigweed plant response rating: Postemergence, 125 g ai/ha, 0 to 100 scale (0 no effect, 100 complete control)
Procedure, shortened: as §2

Compound | Plant response rating, Rice (0 to 100 scale, 0 is no effect, 100 is complete control) [1] | Plant response rating, Barnyardgrass (0 to 100 scale, 0 is no effect, 100 is complete control) [2] | Plant response rating, Sedge, Umbrella (0 to 100 scale, 0 is no effect, 100 is complete control) [3] | Plant response rating, Ducksalad (0 to 100 scale, 0 is no effect, 100 is complete control) [4] | Foxtail, Giant plant response rating [5] | Foxtail, Giant plant response rating (0 to 100 scale) [5] | Ragweed plant response rating (0 to 100 scale) [6] | Ryegrass, Italian plant response rating [7] | Ryegrass, Italian plant response rating (0 to 100 scale) [7] | Barnyardgrass plant response rating [8] | Barnyardgrass plant response rating (0 to 100 scale) [8] | Kochia plant response rating [9] | Kochia plant response rating (0 to 100 scale) [9] | Pigweed plant response rating [10] | Pigweed plant response rating (0 to 100 scale) [10] | Foxtail, Giant plant response rating (0 to 100 scale) [11] | Foxtail, Giant plant response rating [11] | Wheat plant response rating (0 to 100 scale) [12] | Wheat plant response rating [12] | Ragweed plant response rating (0 to 100 scale) [13] | also measured
CO/N=C(/c1ccccc1F)c1c(O)c(C)nn(C)c1=O [Compound 62] | 0 | 0 | 0 | 0 | 0 | 0 | 30 | 10 | 40 | 0 | 0 | 0 | 0 | 0 | 0 | 10 | 0 | 0 | 0 | 40 | Ragweed plant response rating [6]: 0; Ragweed plant response rating [13]: 20; Ryegrass, Italian plant response rating (0 to 100 scale) [14]: 20; Ryegrass, Italian plant response rating [14]: 0; Barnyardgrass plant response rating (0 to 100 scale) [15]: 0; Barnyardgrass plant response rating [15]: 0; Galium plant response rating (0 to 100 scale) [16]: 70; Galium plant response rating [16]: 20; Blackgrass plant response rating (0 to 100 scale) [17]: 10; Blackgrass plant response rating [17]: 10; Corn plant response rating (0 to 100 scale) [18]: 0; Corn plant response rating [18]: 0; Kochia plant response rating (0 to 100 scale) [19]: 20; Kochia plant response rating [19]: 0; Pigweed plant response rating (0 to 100 scale) [20]: 30; Pigweed plant response rating [20]: 10
CO/N=C(\c1ccc(F)cc1C)c1c(O)c(C)nn(C)c1=O [Compound 72] | 0 | 0 | 0 | 0 | 0 | 10 | 20 | 0 | 40 | 0 | 0 | 0 | 0 | 0 | 20 | 10 | 0 | 20 | 0 | 70 | Ragweed plant response rating [6]: 0; Ragweed plant response rating [13]: 40; Ryegrass, Italian plant response rating (0 to 100 scale) [14]: 40; Ryegrass, Italian plant response rating [14]: 0; Barnyardgrass plant response rating (0 to 100 scale) [15]: 0; Barnyardgrass plant response rating [15]: 0; Galium plant response rating (0 to 100 scale) [16]: 70; Galium plant response rating [16]: 70; Blackgrass plant response rating (0 to 100 scale) [17]: 0; Blackgrass plant response rating [17]: 20; Corn plant response rating (0 to 100 scale) [18]: 20; Corn plant response rating [18]: 0; Kochia plant response rating (0 to 100 scale) [19]: 60; Kochia plant response rating [19]: 20; Pigweed plant response rating (0 to 100 scale) [20]: 80; Pigweed plant response rating [20]: 30
CON=C(c1cccc(C(F)(F)F)c1Cl)c1c(O)c(C)nn(C)c1=O [Compound 103] | 0 | 0 | 0 | 0 | 0 | 20 | 50 | 30 | 70 | 0 | 40 | 0 | 0 | 0 | 50 | 30 | 0 | 0 | 0 | 20 | Ragweed plant response rating [13]: 10; Ryegrass, Italian plant response rating (0 to 100 scale) [14]: 50; Ryegrass, Italian plant response rating [14]: 0; Barnyardgrass plant response rating (0 to 100 scale) [15]: 30; Barnyardgrass plant response rating [15]: 20; Galium plant response rating (0 to 100 scale) [16]: 70; Galium plant response rating [16]: 40; Blackgrass plant response rating (0 to 100 scale) [17]: 40; Blackgrass plant response rating [17]: 20; Corn plant response rating (0 to 100 scale) [18]: 0; Corn plant response rating [18]: 0; Kochia plant response rating (0 to 100 scale) [19]: 20; Kochia plant response rating [19]: 0; Pigweed plant response rating (0 to 100 scale) [20]: 30; Pigweed plant response rating [20]: 10

Source: US20210045385A1, “PYRIDAZINONE-SUBSTITUTED KETOXIMES AS HERBICIDES” (FMC Corporation, priority 2018, published 2021)
